The values that follow come from ChEMBL document CHEMBL6120968, “Discovery of Thiadiazoleamide Derivatives as Potent, Selective, and Orally Available Antagonists Disrupting Androgen Receptor Homodimer” (J Med Chem, 2024).

The structures appear in SMILES notation. The source made the active and inactive calls. The rule behind the calls is not given here.

In series [1] the test system is LNCaP. The experiment in a line: Antiproliferative activity against human LNCaP cells assessed as inhibition of cell proliferation incubated for 3 days by MTT assay. Particulars: 72 h. It is filed as functional, cell-based.
The next series addresses hERG (KCNH2) (Homo sapiens, UniProt Q12809). The series can be described thus: (§1) Inhibition of hERG at 10 uM relative to control. It counts as toxicity.
A further series deals with T1, Androgen receptor (Homo sapiens, UniProt P10275).
T1 sequence (P10275 whole entry): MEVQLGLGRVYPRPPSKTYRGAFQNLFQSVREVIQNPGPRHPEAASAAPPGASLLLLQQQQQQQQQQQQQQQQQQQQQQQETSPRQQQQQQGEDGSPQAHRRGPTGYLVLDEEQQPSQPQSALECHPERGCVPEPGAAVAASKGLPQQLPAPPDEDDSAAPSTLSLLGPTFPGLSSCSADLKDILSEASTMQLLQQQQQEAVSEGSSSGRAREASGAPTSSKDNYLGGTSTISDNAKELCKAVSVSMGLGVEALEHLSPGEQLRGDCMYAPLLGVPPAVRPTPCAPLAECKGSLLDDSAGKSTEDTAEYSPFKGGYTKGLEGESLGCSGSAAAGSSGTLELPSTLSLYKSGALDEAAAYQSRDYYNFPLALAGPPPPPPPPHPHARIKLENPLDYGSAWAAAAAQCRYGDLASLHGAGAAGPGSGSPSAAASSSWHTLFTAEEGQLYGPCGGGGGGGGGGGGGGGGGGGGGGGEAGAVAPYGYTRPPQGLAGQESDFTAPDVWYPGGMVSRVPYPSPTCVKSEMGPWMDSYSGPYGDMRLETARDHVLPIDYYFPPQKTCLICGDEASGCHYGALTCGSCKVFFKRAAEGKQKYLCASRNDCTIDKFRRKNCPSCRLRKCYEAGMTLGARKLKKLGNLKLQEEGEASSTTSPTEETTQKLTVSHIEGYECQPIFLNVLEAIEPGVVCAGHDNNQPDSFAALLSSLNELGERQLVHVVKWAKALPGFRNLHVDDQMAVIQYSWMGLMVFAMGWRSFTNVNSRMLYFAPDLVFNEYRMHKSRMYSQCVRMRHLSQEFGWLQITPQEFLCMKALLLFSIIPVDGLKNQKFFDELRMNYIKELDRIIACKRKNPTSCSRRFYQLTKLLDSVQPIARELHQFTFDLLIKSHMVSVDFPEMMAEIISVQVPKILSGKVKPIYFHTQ
The experiment in a line: Antagonist activity at Androgen receptor in human LNCaP cells transfected with ARR2PB-eGFP incubated for 3 days by synergy H1 microplate reader analysis. It is filed as cell-based.

The next series deals with NIH3T3. The experiment in a line: Antiproliferative activity against mouse 3T3 cells assessed as reduction in cell viability incubated for 3 days by MTT assay. Particulars: nih3t3, 72 h, time 3 day. It counts as toxicity, cell-based.
Series [2] can be described thus: Antagonist activity at Androgen receptor F877L/T878A double mutant in human HEK293T cells cotransfected with MMTV-luc and renilla plasmid incubated for 24 hrs by Dual luciferase assay. Particulars: HEK-293T. It counts as cell-based.
The nature of series [3]: Downregulation of PSA level in human LNCaP cells transfected with ARR2PB-eGFP incubated for 24 hrs by Western blot analysis.
The subject of a further series is LNCaP C4-2B. The experiment in a line: Antiproliferative activity against human LNCaP C4-2B cells assessed as survival rate incubated for 3 days by MTT assay. Particulars: 72 h.
The test system of a further series is LNCaP C4-2. The series can be described thus: Antiproliferative activity against human LNCaP C4-2 cells assessed as survival rate incubated for 3 days by MTT assay. Particulars: LNCaP C4-2, 72 h.
For series [4], the target named is Voltage-gated inwardly rectifying potassium channel KCNH2 (Homo sapiens, UniProt Q12809). The series is described as §1. It counts as toxicity. Particulars: 10 µM.
For series [5], the system named is LNCaP. The series can be described thus: Antiproliferative activity against human LNCaP cells assessed as survival rate incubated for 3 days by MTT assay. Particulars: 72 h.
The subject of series [6] is LNCaP. The experiment in a line: Downregulation of FKBP5 level in DHT-induced human LNCaP cells at 0.1 to 1 uM incubated for 24 hrs by Western blot analysis. It is filed as functional, cell-based. Particulars: dose 0.1-1 µM.

Sequence of hERG (KCNH2) (Q12809 whole entry): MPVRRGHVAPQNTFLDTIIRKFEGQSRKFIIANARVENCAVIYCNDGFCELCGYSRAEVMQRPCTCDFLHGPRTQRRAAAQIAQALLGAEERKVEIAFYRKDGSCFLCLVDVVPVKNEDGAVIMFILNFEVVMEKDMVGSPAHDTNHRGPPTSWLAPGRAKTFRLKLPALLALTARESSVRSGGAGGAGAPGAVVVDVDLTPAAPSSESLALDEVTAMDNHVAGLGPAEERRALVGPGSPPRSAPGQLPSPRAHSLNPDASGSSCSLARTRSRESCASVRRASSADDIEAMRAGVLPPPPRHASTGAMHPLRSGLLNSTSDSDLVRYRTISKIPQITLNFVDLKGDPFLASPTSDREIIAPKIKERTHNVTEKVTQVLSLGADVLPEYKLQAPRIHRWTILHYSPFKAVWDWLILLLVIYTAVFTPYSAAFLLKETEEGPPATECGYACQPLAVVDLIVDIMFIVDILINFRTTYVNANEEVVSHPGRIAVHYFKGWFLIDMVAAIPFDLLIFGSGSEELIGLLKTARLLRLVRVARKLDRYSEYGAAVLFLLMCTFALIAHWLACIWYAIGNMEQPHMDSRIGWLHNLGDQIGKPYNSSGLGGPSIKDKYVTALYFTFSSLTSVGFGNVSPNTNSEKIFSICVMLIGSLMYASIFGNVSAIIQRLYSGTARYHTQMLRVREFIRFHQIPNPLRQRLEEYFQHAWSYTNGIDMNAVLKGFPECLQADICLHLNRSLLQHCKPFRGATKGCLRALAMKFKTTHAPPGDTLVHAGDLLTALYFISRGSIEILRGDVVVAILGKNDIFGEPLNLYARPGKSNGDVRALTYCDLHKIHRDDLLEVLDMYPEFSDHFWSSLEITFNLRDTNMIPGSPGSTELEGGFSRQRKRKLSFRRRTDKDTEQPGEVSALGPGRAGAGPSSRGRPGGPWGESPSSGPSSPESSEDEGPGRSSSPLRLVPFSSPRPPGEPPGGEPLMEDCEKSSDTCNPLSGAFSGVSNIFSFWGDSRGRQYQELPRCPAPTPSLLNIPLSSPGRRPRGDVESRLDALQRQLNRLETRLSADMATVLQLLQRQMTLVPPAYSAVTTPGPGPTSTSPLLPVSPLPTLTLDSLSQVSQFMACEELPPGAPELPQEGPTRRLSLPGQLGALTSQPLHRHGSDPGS
Sequence of Voltage-gated inwardly rectifying potassium channel KCNH2 (Q12809 whole entry): as above

`Cc1oc(-c2cc(C(F)(F)F)ccc2F)cc1C(=O)Nc1nc(CN2CCOCC2)ns1`: the IC50 with LNCaP [1] is 2750 nM; at Androgen receptor, 18 nM. The compound also had an inhibition at 10 µM on hERG (KCNH2) of 21%. For the compound `Cc1oc(-c2cc(F)cc(C(F)(F)F)c2)cc1C(=O)Nc1nc(CN2CCOCC2)ns1`, the inhibition at 10 µM on hERG (KCNH2) came to 16.4%. The Activity result with NIH3T3 is on record as “Non-toxic”. `CC(O)c1cc(C(=O)N[C@@H](C)Cn2ccc(-c3ccc(C#N)c(Cl)c3)n2)n[nH]1` (some centres undefined) [DAROLUTAMIDE] registered an IC50 in series [2] of 670 nM. `Cc1oc(-c2cccc(C(F)(F)F)c2)cc1C(=O)Nc1nc(CC(C)N2CCCC2)ns1` (centres undefined): on hERG (KCNH2), the inhibition at 10 µM is 93.5%. Moreover, on Androgen receptor, the IC50 was 24 nM. With `CNC(=O)c1ccc(N2C(=S)N(c3ccc(C#N)c(C(F)(F)F)c3)C(=O)C2(C)C)cc1F` [ENZALUTAMIDE], the IC50 was 520 nM in series [3]; 16300 nM with LNCaP C4-2B; 27700 nM in the series with LNCaP C4-2; 12400 nM in the series on LNCaP [1]; 27700 nM with LNCaP [5]. Also, in series [4], the “inhibition (INH)” value is “Not_active”. Regarding `CC(=O)Cc1ccc(NC(=O)c2cc(-c3cccc(C(F)(F)F)c3)oc2C)cc1`, on Androgen receptor, the IC50 worked out at 50000 nM. For `Cc1oc(-c2cccc(C(F)(F)F)c2)cc1C(=O)Nc1nc(CC(C)O)ns1` (centres undefined), at Androgen receptor, the IC50 is 29 nM. With `Cc1oc(-c2cccc(C(F)(F)F)c2)cc1C(=O)Nc1nc(CC(C)N2CCCCC2)ns1` (centres undefined), the IC50 on Androgen receptor was determined as 450 nM. With `Cc1oc(-c2cccc(OC(F)(F)F)c2)cc1C(=O)Nc1nc(CN2CCOCC2)ns1`, on hERG (KCNH2), the inhibition at 10 µM is 47.3%. Besides, the IC50 on Androgen receptor worked out at 19 nM. Turning to `CC(=O)Cc1nsc(NC(=O)c2cc(-c3cccc(C(F)(F)F)c3)oc2C(F)(F)F)n1`, the IC50 on Androgen receptor worked out at 8400 nM. For `Cc1oc(-c2cccc(C(F)(F)F)c2)cc1C(=O)Nc1nc(CN2CCC(CO)CC2)ns1`, the outcome in the series with LNCaP [6] was Active. Also, on Androgen receptor, the concentration for half-maximal inhibition (IC50) stood at 160 nM.

On to `Cc1oc(-c2cccc(C(F)(F)F)c2)cc1C(=O)Nc1nc(CN2CCCC(O)C2)ns1` (centres undefined), for which the IC50 on Androgen receptor is 150 nM. As for `Cc1oc(-c2cccc(C(F)(F)F)c2)cc1C(=O)Nc1nc(CN2CCC(O)C2)ns1` (centres undefined), on Androgen receptor, the IC50 was 470 nM. Still for that read-out and setting: under `Cc1oc(-c2cccc(C(F)(F)F)c2)cc1C(=O)Nc1nc(CC(C)N(C)C)ns1` (centres undefined) stands 280 nM.

As to `Cc1oc(-c2cccc(C#N)c2)cc1C(=O)Nc1nc(CN2CCOCC2)ns1`, the inhibition at 10 µM against hERG (KCNH2) came to 47.8%. Also, the IC50 at Androgen receptor worked out at 16 nM. For `COc1cccc(-c2cc(C(=O)Nc3nc(CN4CCOCC4)ns3)c(C)o2)c1`, in that order: 36.9% and 22 nM. Regarding `Cc1oc(-c2cc(C(F)(F)F)ccc2Cl)cc1C(=O)Nc1nc(CN2CCOCC2)ns1`, the IC50 in the series with LNCaP [1] came out at 3270 nM; on Androgen receptor, 29 nM. This compound came in with an inhibition at 10 µM against hERG (KCNH2) of 8%. As for `Cc1oc(-c2ccc(Cl)c(C(F)(F)F)c2)cc1C(=O)Nc1nc(CN2CCOCC2)ns1`, at hERG (KCNH2), the inhibition at 10 µM was found to be 51.3%. For the same compound, the IC50 on Androgen receptor stood at 35 nM. Take `Cc1oc(-c2cccc(C(F)(F)F)c2)cc1C(=O)Nc1nc(CN2CCN(C)CC2)ns1`: the IC50 on Androgen receptor worked out at 74 nM. As for `Cc1oc(-c2cc(Cl)cc(C(F)(F)F)c2)cc1C(=O)Nc1nc(CN2CCOCC2)ns1`, the IC50 at Androgen receptor came to 260 nM. On the same count and under the same terms, next, `Cc1oc(-c2ccc(F)c(C(F)(F)F)c2)cc1C(=O)Nc1nc(CN2CCOCC2)ns1`: 26 nM; `CC(=O)Cc1nsc(NC(=O)c2coc(-c3cccc(C(F)(F)F)c3)c2)n1`: 710 nM. At hERG (KCNH2), `Cc1oc(-c2cccc(OC(F)F)c2)cc1C(=O)Nc1nc(CN2CCOCC2)ns1` returned an inhibition at 10 µM of 68.3%. The IC50 on Androgen receptor was 16 nM.

On to `Cc1oc(-c2cccc(C(F)(F)F)c2)cc1C(=O)Nc1nc(CN2CCCC2)ns1`, for which the IC50 on Androgen receptor was 61 nM.

The compound `Cc1oc(-c2cccc(C(F)(F)F)c2)cc1C(=O)Nc1nc(CN2CCCCC2)ns1` came in with an inhibition at 10 µM against hERG (KCNH2) of 95.5%. The half-maximal inhibitory concentration (IC50) on Androgen receptor was 24 nM.

For `Cc1oc(-c2cccc(C(F)(F)F)c2)cc1C(=O)Nc1nc(CC(C)N2CCN(C)CC2)ns1` (centres undefined), the IC50 at Androgen receptor stood at 36 nM.

Regarding `Cc1oc(-c2cccc(C(F)(F)F)c2)cc1C(=O)Nc1nc(CN2CCC(C(C)(C)O)CC2)ns1`, the IC50 on Androgen receptor turned out to be 270 nM. On the same count and under the same terms, next, `Cc1oc(-c2cccc(C(F)(F)F)c2)cc1C(=O)Nc1nccs1`: 450 nM; `Cc1oc(-c2cccc(C(F)(F)F)c2F)cc1C(=O)Nc1nc(CN2CCOCC2)ns1`: 200 nM.

As for `Cc1oc(-c2cccc(C(F)(F)F)c2)cc1C(=O)Nc1nc(CC(C)N2CCOCC2)ns1` (centres undefined), the IC50 at Androgen receptor was found to be 32 nM. On to `Cc1oc(-c2cccc(C(F)(F)F)c2Cl)cc1C(=O)Nc1nc(CN2CCOCC2)ns1`, for which the IC50 at Androgen receptor was determined as 860 nM. On the same count and under the same terms, under `Cc1oc(-c2cccc(C(F)(F)F)c2)cc1C(=O)Nc1ncns1` stands 180 nM. Take `Cc1oc(-c2cccc(C(F)(F)F)c2)cc1C(=O)Nc1nc(CN2CCC(O)CC2)ns1`: on Androgen receptor, the concentration for half-maximal inhibition (IC50) amounted to 140 nM. The same measure, in the same setting: under `CC(=O)Cc1nsc(NC(=O)c2cc(-c3cccc(C(F)(F)F)c3)sc2C)n1` stands 9200 nM; under `CC(Cc1nsc(NC(=O)c2cc(-c3cccc(C(F)(F)F)c3)oc2C)n1)=C(F)F`, 280 nM. On the same count and under the same terms, under `CC(=O)Cc1nsc(NC(=O)c2cc(-c3cccc(C(F)(F)F)c3)oc2C)n1` stands 150 nM.
